Data published in patent US20070128217A1 (priority 2003, published 2007).

How the values were obtained:
[1] = tested on: antibodies in sera from SARS patients (sera 1a, 1b, 2, 6, 37, 62, London, SARS-yellow, SARS-green); assay type: binding, human; parameters: Binding of serum 6 to linear peptides of protein X1 of SARS-CoV Urbani / Binding of serum 37 to linear peptides of protein X1 of SARS-CoV Urbani / Binding of serum 6 to looped/cyclic peptide (PEPSCAN-ELISA) / Binding of serum 37 to looped/cyclic peptide (PEPSCAN-ELISA) / Binding of serum 37 to looped/cyclic peptides of protein X1 of SARS-CoV Urbani / Binding of serum 6 to linear peptides of protein X2 / Binding of serum 37 to linear peptides of protein X2 / Binding of serum 37 to looped/cyclic peptides of protein X2 of SARS-CoV Urbani / Binding of serum 6 to linear peptides of protein M of SARS-CoV Urbani / Binding of serum 37 to linear peptides of protein M of SARS-CoV Urbani / Binding of serum 6 to looped/cyclic peptides of protein M of SARS-CoV Urbani / Binding of serum 37 to looped/cyclic peptides of protein M of SARS-CoV Urbani / Binding of serum 6 to linear peptides of protein X3 of SARS-CoV Urbani / Binding of serum 37 to linear peptides of protein X3 of SARS-CoV Urbani / Binding of serum 37 to looped/cyclic peptides of protein X3 of SARS-CoV Urbani / Binding of serum 6 to linear peptides of protein X4 of SARS-CoV Urbani / Binding of serum 37 to linear peptides of protein X4 of SARS-CoV Urbani / Binding of serum 37 to looped/cyclic peptides of protein X4 of SARS-CoV Urbani / Binding of serum 6 to linear peptides of protein X5 of SARS-CoV Urbani / Binding of serum 37 to linear peptides of protein X5 of SARS-CoV Urbani / Binding of serum 37 to looped/cyclic peptides of protein X5 of SARS-CoV Urbani / Binding of serum 6 to linear peptides of protein N of SARS-CoV Urbani / Binding of serum 37 to linear peptides of protein N of SARS-CoV Urbani / Binding of serum 6 to linear peptide (PEPSCAN-ELISA) / Binding of serum 1a to looped/cyclic peptides of protein N of SARS-CoV Urbani / Binding of serum 1b to looped/cyclic peptides of protein N of SARS-CoV Urbani / Binding of serum 2 to looped/cyclic peptides of protein N of SARS-CoV Urbani / Binding of serum 6 to looped/cyclic peptides of protein N of SARS-CoV Urbani / Binding of serum 37 to looped/cyclic peptides of protein N of SARS-CoV Urbani / Binding of serum 62 to looped/cyclic peptides of protein N of SARS-CoV Urbani / Binding of serum London to looped/cyclic peptides of protein N of SARS-CoV Urbani / Binding of serum SARS-green to looped/cyclic peptides of protein N of SARS-CoV Urbani: unit not given here
[2] = tested on: rabbit serum obtained by immunizing a rabbit with the SARS-CoV strain Frankfurt 1; assay type: binding; parameters: Binding of a rabbit serum to linear peptides / Binding of a rabbit serum to looped peptides / Rabbit serum linear peptides / Rabbit serum looped peptides / Binding of a rabbit serum to linear peptides of protein N of SARS-CoV Urbani (Rabbit serum linear peptides) / Binding of a rabbit serum to looped/cyclic peptides of protein N of SARS-CoV Urbani (Rabbit serum looped peptides): unit not given here
[3] = tested on: control sera (pooled serum of ten healthy LUMC hospital workers; commercial negative donor pooled serum from the Dutch bloodbank); assay type: binding, human; parameters: Binding of Control serum LUMC to linear peptides / Binding of Control serum Blood-bank to linear peptides / Binding of Control serum LUMC to looped peptides / Binding of Control Serum Blood-Bank to Looped peptides / Binding of Control serum LUMC to linear peptides of the protein M of SARS-CoV Urbani / Binding of Control serum Blood-bank to linear peptides of the protein M of SARS-CoV Urbani / Binding of Control serum LUMC to looped peptides of the protein M of SARS-CoV Urbani / Binding of Control Serum Blood-Bank to Looped peptides of the protein M of SARS-CoV Urbani: unit not given here

Sequence: TQITTDTGIENATFF
- Binding of serum 1a to linear peptides of protein X1 of SARS-CoV Urbani [1]: 0.7
- Binding of serum 1a to looped/cyclic peptides of protein X1 of SARS-CoV Urbani [1]: 0.5
- Binding of serum 1b to linear peptides of protein X1 of SARS-CoV Urbani [1]: 0.6
- Binding of serum 1b to looped/cyclic peptides of protein X1 of SARS-CoV Urbani [1]: 0.3
- Binding of serum 2 to linear peptides of protein X1 of SARS-CoV Urbani [1]: 0.5
- Binding of serum 2 to looped/cyclic peptides of protein X1 of SARS-CoV Urbani [1]: 0.2
- Binding of serum 6 to linear peptides of protein X1 of SARS-CoV Urbani [1]: 0.6
- Binding of serum 6 to looped/cyclic peptides of protein X1 of SARS-CoV Urbani [1]: 0.3
- Binding of serum 37 to linear peptides of protein X1 of SARS-CoV Urbani [1]: 0.7
- Binding of serum 37 to looped/cyclic peptides of protein X1 of SARS-CoV Urbani [1]: 0.4
- Binding of serum 62 to linear peptides of protein X1 of SARS-CoV Urbani [1]: 0.5
- Binding of serum 62 to looped/cyclic peptides of protein X1 of SARS-CoV Urbani [1]: 0.5
- Binding of serum London to linear peptides of protein X1 of SARS-CoV Urbani [1]: 0.3
- Binding of serum London to looped/cyclic peptides of protein X1 of SARS-CoV Urbani [1]: 0.2
- Binding of serum SARS-green to linear peptides of protein X1 of SARS-CoV Urbani [1]: 0.7
- Binding of serum SARS-green to looped/cyclic peptides of protein X1 of SARS-CoV Urbani [1]: 0.3
- Binding of serum SARS-yellow to linear peptides of protein X1 of SARS-CoV Urbani [1]: 0.5
- Binding of serum SARS-yellow to looped/cyclic peptides of protein X1 of SARS-CoV Urbani [1]: 0.4
- Binding of a rabbit serum to linear peptides [2]: 0.1
- Binding of a rabbit serum to looped peptides [2]: 0.6
- Binding of Control Serum Blood-Bank to Looped peptides [3]: 0.5
- Binding of Control serum Blood-bank to linear peptides [3]: 0.6
- Binding of Control serum LUMC to linear peptides [3]: 0.8
- Binding of Control serum LUMC to looped peptides [3]: 0.5

Sequence: TQSTALQELLIQQWI
- Binding of serum 1a to linear peptides of protein X2 [1]: 0.7
- Binding of serum 1a to looped/cyclic peptides of protein X2 of SARS-CoV Urbani [1]: 0.6
- Binding of serum 1b to linear peptides of protein X2 [1]: 0.6
- Binding of serum 1b to looped/cyclic peptides of protein X2 of SARS-CoV Urbani [1]: 0.5
- Binding of serum 2 to linear peptides of protein X2 [1]: 0.3
- Binding of serum 2 to looped/cyclic peptides of protein X2 of SARS-CoV Urbani [1]: 0.4
- Binding of serum 6 to linear peptides of protein X2 [1]: 0.7
- Binding of serum 6 to looped/cyclic peptides of protein X2 of SARS-CoV Urbani [1]: 0.2
- Binding of serum 37 to linear peptides of protein X2 [1]: 0.6
- Binding of serum 37 to looped/cyclic peptides of protein X2 of SARS-CoV Urbani [1]: 0.6
- Binding of serum 62 to linear peptides of protein X2 [1]: 0.6
- Binding of serum 62 to looped/cyclic peptides of protein X2 of SARS-CoV Urbani [1]: 0.6
- Binding of serum London to linear peptides of protein X2 [1]: 0.7
- Binding of serum London to looped/cyclic peptides of protein X2 of SARS-CoV Urbani [1]: 0.2
- Binding of serum SARS-green to linear peptides of protein X2 [1]: 0.6
- Binding of serum SARS-green to looped/cyclic peptides of protein X2 of SARS-CoV Urbani [1]: 0.5
- Binding of serum SARS-yellow to linear peptides of protein X2 [1]: 0.7
- Binding of serum SARS-yellow to looped/cyclic peptides of protein X2 of SARS-CoV Urbani [1]: 0.5
- Binding of a rabbit serum to linear peptides [2]: 0.3
- Binding of a rabbit serum to looped peptides [2]: 0.4
- Binding of Control Serum Blood-Bank to Looped peptides [3]: 0.7
- Binding of Control serum Blood-bank to linear peptides [3]: 0.8
- Binding of Control serum LUMC to linear peptides [3]: 0.6
- Binding of Control serum LUMC to looped peptides [3]: 0.6

Sequence: TRPLMESELVIGAVI
- Binding of serum 1a to linear peptides of protein M of SARS-CoV Urbani [1]: 0.8
- Binding of serum 1b to linear peptides of protein M of SARS-CoV Urbani [1]: 0.7
- Binding of serum 2 to linear peptides of protein M of SARS-CoV Urbani [1]: 0.7
- Binding of serum 6 to linear peptides of protein M of SARS-CoV Urbani [1]: 0.6
- Binding of serum 37 to linear peptides of protein M of SARS-CoV Urbani [1]: 0.7
- Binding of serum 62 to linear peptides of protein M of SARS-CoV Urbani [1]: 0.6
- Binding of serum London to linear peptides of protein M of SARS-CoV Urbani [1]: 0.3
- Binding of serum SARS-green to linear peptides of protein M of SARS-CoV Urbani [1]: 0.8
- Binding of serum SARS-yellow to linear peptides of protein M of SARS-CoV Urbani [1]: 0.2
- Recognition of the peptide by sera of SARS-CoV infected individuals, and form (linear, looped/cyclic) in which it is recognized [1]: recognized in looped/cyclic form
- Rabbit serum linear peptides [2]: 0.2
- Rabbit serum looped peptides [2]: 0.3
- Binding of Control Serum Blood-Bank to Looped peptides of the protein M of SARS-CoV Urbani [3]: 1.1
- Binding of Control serum Blood-bank to linear peptides of the protein M of SARS-CoV Urbani [3]: 0.9
- Binding of Control serum LUMC to linear peptides of the protein M of SARS-CoV Urbani [3]: 1.0
- Binding of Control serum LUMC to looped peptides of the protein M of SARS-CoV Urbani [3]: 1.0

Sequence: TSTHFAFACADGTRH
- Binding of serum 1a to linear peptides of protein X4 of SARS-CoV Urbani [1]: 0.7
- Binding of serum 1a to looped/cyclic peptides of protein X4 of SARS-CoV Urbani [1]: 0.8
- Binding of serum 1b to linear peptides of protein X4 of SARS-CoV Urbani [1]: 0.6
- Binding of serum 1b to looped/cyclic peptides of protein X4 of SARS-CoV Urbani [1]: 0.7
- Binding of serum 2 to linear peptides of protein X4 of SARS-CoV Urbani [1]: 0.5
- Binding of serum 2 to looped/cyclic peptides of protein X4 of SARS-CoV Urbani [1]: 0.6
- Binding of serum 6 to linear peptides of protein X4 of SARS-CoV Urbani [1]: 0.7
- Binding of serum 6 to looped/cyclic peptides of protein X4 of SARS-CoV Urbani [1]: 0.7
- Binding of serum 37 to linear peptides of protein X4 of SARS-CoV Urbani [1]: 0.7
- Binding of serum 37 to looped/cyclic peptides of protein X4 of SARS-CoV Urbani [1]: 0.7
- Binding of serum 62 to linear peptides of protein X4 of SARS-CoV Urbani [1]: 0.8
- Binding of serum 62 to looped/cyclic peptides of protein X4 of SARS-CoV Urbani [1]: 0.8
- Binding of serum London to linear peptides of protein X4 of SARS-CoV Urbani [1]: 0.8
- Binding of serum London to looped/cyclic peptides of protein X4 of SARS-CoV Urbani [1]: 0.4
- Binding of serum SARS-green to linear peptides of protein X4 of SARS-CoV Urbani [1]: 0.6
- Binding of serum SARS-green to looped/cyclic peptides of protein X4 of SARS-CoV Urbani [1]: 0.6
- Binding of serum SARS-yellow to linear peptides of protein X4 of SARS-CoV Urbani [1]: 0.2
- Binding of serum SARS-yellow to looped/cyclic peptides of protein X4 of SARS-CoV Urbani [1]: 0.7
- Rabbit serum linear peptides [2]: 0.5
- Rabbit serum looped peptides [2]: 0.7
- Binding of Control Serum Blood-Bank to Looped peptides [3]: 0.8
- Binding of Control serum Blood-bank to linear peptides [3]: 0.7
- Binding of Control serum LUMC to linear peptides [3]: 0.8
- Binding of Control serum LUMC to looped peptides [3]: 0.8

Sequence: TTDTGIENATFFIFN
- Binding of serum 1a to linear peptides of protein X1 of SARS-CoV Urbani [1]: 0.8
- Binding of serum 1a to looped/cyclic peptides of protein X1 of SARS-CoV Urbani [1]: 0.6
- Binding of serum 1b to linear peptides of protein X1 of SARS-CoV Urbani [1]: 0.5
- Binding of serum 1b to looped/cyclic peptides of protein X1 of SARS-CoV Urbani [1]: 0.6
- Binding of serum 2 to linear peptides of protein X1 of SARS-CoV Urbani [1]: 0.6
- Binding of serum 2 to looped/cyclic peptides of protein X1 of SARS-CoV Urbani [1]: 0.7
- Binding of serum 6 to linear peptides of protein X1 of SARS-CoV Urbani [1]: 0.5
- Binding of serum 6 to looped/cyclic peptides of protein X1 of SARS-CoV Urbani [1]: 0.6
- Binding of serum 37 to linear peptides of protein X1 of SARS-CoV Urbani [1]: 0.6
- Binding of serum 37 to looped/cyclic peptides of protein X1 of SARS-CoV Urbani [1]: 1.0
- Binding of serum 62 to linear peptides of protein X1 of SARS-CoV Urbani [1]: 0.5
- Binding of serum 62 to looped/cyclic peptides of protein X1 of SARS-CoV Urbani [1]: 0.9
- Binding of serum London to linear peptides of protein X1 of SARS-CoV Urbani [1]: 0.3
- Binding of serum London to looped/cyclic peptides of protein X1 of SARS-CoV Urbani [1]: 0.3
- Binding of serum SARS-green to linear peptides of protein X1 of SARS-CoV Urbani [1]: 0.4
- Binding of serum SARS-green to looped/cyclic peptides of protein X1 of SARS-CoV Urbani [1]: 0.6
- Binding of serum SARS-yellow to linear peptides of protein X1 of SARS-CoV Urbani [1]: 0.5
- Binding of serum SARS-yellow to looped/cyclic peptides of protein X1 of SARS-CoV Urbani [1]: 0.5
- Binding of a rabbit serum to linear peptides [2]: 0.1
- Binding of a rabbit serum to looped peptides [2]: 0.5
- Binding of Control Serum Blood-Bank to Looped peptides [3]: 0.8
- Binding of Control serum Blood-bank to linear peptides [3]: 0.6
- Binding of Control serum LUMC to linear peptides [3]: 1.0
- Binding of Control serum LUMC to looped peptides [3]: 0.8
